From patent publication US8628961B2, “Small molecule antagonists of phosphatidylinositol-3,4,5-triphosphate (PIP3) and uses thereof” (Tufts University, priority 2010, dated 2014)

What was measured:
[1] = test system: Rac1; test: Rac1 activation pull-down (GST-Pak1-PBD), western blot; assay type: cell-based, human; conditions: SUM159, PDGF
Protocol: Rho/Rac family, especially Rac1, plays a critical role in actin polymerization, membrane ruffling/lamellipodia formation, and cell motility (Ridley A J et al. (1992) Cell 70:401-410) downstream of the GEFs, e.g., VAV family, and upstream of the WAVE family. The effect of PITs on Rac1 activation was therefore analyzed. SUM159 cells were seeded on 10 cm^2 plates and serum starved overnight, treated with different PIT compounds at a variety of concentrations for 2 hr, and then stimulated with 100 ng/ml PDGF for 15 min. Next, cells were rinsed once with PBS, and 1 ml lysis buffer (25 mM Tris-HCl, pH 7.5, 150 mM NaCl, 5 mM MgCl2, 1% NP-40, 1 mM DTT, 5% glycerol, 1 μg/ml aprotinin, 1 μg/ml leupeptin and 1 mM PMSF) was added per plate. The cells were scraped and transferred to a microcentrifuge tube, vortexed briefly, and incubated on ice for 5 min, followed by a centrifugation at 16,000×g at 4° C. for 15 min. The supernatant was collected. A sample of the lysate was used to ensure equal protein concentration in the samples. Next, 700 μl lysate, 20 μl glutathione-sepharose beads, and 20 μg GST-human Pak1-PBD were mixed together, and the reaction mixture was incubated at 4° C. for 1 hr with gentle rocking. The beads were then washed three times with lysis buffer, and proteins were eluted by boiling beads in 50 μl of the 2×SDS sample buffer at 95-100° C. for 5 min. […]

[2] = test system: U87MG cells; test: Combination with Akt kinase inhibitors in U87MG cells (western blot, ATP assay); assay type: cell-based, human; conditions: 100 μM PIT-1 with 10 μM Akt inhibitor
Protocol: U87MG cells were treated with 100 μM PIT-1, or 10 μM Akt inhibitor VIII (Calbiochem) or Akt inhibitor (Calbiochem), or 100 μM PIT-1 together with 10 μM Akt inhibitor VIII or Akt inhibitor, for 12 hr and then phosphorylation events were evaluated by western blot.

[3] = Solubility (aqueous, cell media); assay type: physicochemical
From the text: The size of the DM-PIT-1-loaded micelles was about 15 nm with a narrow size distribution.

[4] = test system: U87MG cells; test: Sensitization of U87MG cells to TRAIL, ATP assay; assay type: cell-based, human; conditions: 10 ng/ml TRAIL, 48 hr
Protocol: FIG. 10 is a bar graph depicting that PITs, as well as Akt inhibitor VIII, sensitize U87MG cells to killing by TRAIL. U87MG cells were incubated with 50 μM PIT-1, PIT-2, PIT-1i-1 or 10 μM Akt inhibitor VIII in the presence or absence of 10 ng/ml TRAIL for 48 hr, followed by cell viability analysis using ATP assay.
Upregulation of PI3K/Akt signaling is an important mechanism of chemoresistance of cancer cells. Blume-Jensen P et al. (2001) Nature 411:355-65; Osaki M et al. (2004) Apoptosis 9:667-76. […] Puduvalli V K et al. (2005) Apoptosis 10:233-43 TRAIL represents a particularly promising anti-cancer agent due to its intrinsic selectivity towards cancer cells which is associated with the expression of the decoy receptors by many (but not all) normal cells. Abe K et al. (2000) Ann NY Acad Sci 926:52-63. […] Oka N et al. (2005) Cancer Res 65:7546-53.

[5] = test system: U87MG cells; test: Cell death with pan-caspase inhibitor zVAD.fmk, Sytox assay; assay type: cell-based, human; conditions: 100 μM zVAD.fmk
Protocol: FIG. 11 is a bar graph depicting that cell death triggered by PIT-1 alone or in combination with TRAIL is inhibited by pan-caspase inhibitor zVAD.fmk. U87MG cells were incubated with or without 100 μM zVAD.fmk together with PIT-1 (25, 50, 100 μM) in the presence or absence of 10 ng/ml TRAIL for 24 hr, and analyzed by Sytox cell death assay.
Since PI3K/PIP3/Akt signaling plays a critical role in the inhibition of apoptosis (Datta S R et al. (1999) Genes Dev 13:2905-27), the possibility that PITs induce apoptosis was examined. […] Proapoptotic Bcl-2 family members Bax and Bak are important mediators of apoptosis. Wei M C et al. (2001) Science 292:727-30. […] Non-apoptotic mechanisms of cell death may also play some additional, albeit less important, role in PIT-induced killing, as some cell death was still observed in Bax/Bak-deficient cells and in the presence of zVAD.fmk.

[6] = test system: differentiated HL-60 cells; test: fMLP-stimulated cell polarization; assay type: cell-based; conditions: 100 μM, 2 hr
Protocol: In another set of experiments, the ability of PITs to inhibit fMLP-stimulated HL-60 cell polarization was examined. Differentiated HL-60 cells were treated with PIT-1, PIT-2, PIT-1i-1, or PIT-1i-2, each at 100 μM for 2 hr, followed by stimulation with 100 nM fMLP for 3 min. Actin was stained and analyzed using fluorescent microscopy. The number of the polarized cells was counted in five random fields.

[7] = biological target: VAV2 (Homo sapiens (Human), UniProt P52735); test: Plasma membrane translocation assay (GFP fusion); assay type: cell-based; conditions: PDGF stimulation
Protocol: (§1) To begin characterizing cellular activity of PITs, a PH domain translocation assay was performed, measuring PIP3-induced association of GFP-fused PH domains with the plasma membrane. This method provides useful means for monitoring status of the PH domain/PIP3 binding in the intact cells. Varnai P et al. (1999) J Biol Chem 274:10983-9. Several PH-domain-containing proteins, which are known to bind PIP3 specifically and efficiently, were examined. […] Oikawa T et al. (2004) Nat Cell Biol 6:420-6.

[8] = biological target: WAVE2 (Homo sapiens (Human), UniProt Q9Y6W5); test: Plasma membrane translocation assay (GFP fusion); assay type: cell-based
Protocol: as §1

[9] = test system: cancer cells; test: Cancer cell invasion through matrigel; assay type: cell-based
From the text: Simpson K J et al. (2004) Cancer Res 64:8694-701.

[10] = test system: PI3K/PDK1/Akt signaling pathway; test: PIP3-dependent phosphorylation events in HUVEC, Western blotting; assay type: cell-based, human; conditions: 50, 100 and 200 μM, 2 hr, bFGF
Protocol: Endothelial cell migration plays a central role in tumor angiogenesis. Avraamides C J et al. (2008) Nat Rev Cancer 8:604-17. […] First, human umbilical vein endothelial cells (HUVEC) cells were serum starved overnight, and treated with different concentrations of PIT-1 (50, 100 and 200 μM) for 2 hr, followed by stimulation with 10 ng/ml bFGF for 15 min, and the PIP3-dependent phosphorylation events were evaluated by Western blotting.

VAV2, sequence (P52735 whole entry, species assumed, the tested form may be a part): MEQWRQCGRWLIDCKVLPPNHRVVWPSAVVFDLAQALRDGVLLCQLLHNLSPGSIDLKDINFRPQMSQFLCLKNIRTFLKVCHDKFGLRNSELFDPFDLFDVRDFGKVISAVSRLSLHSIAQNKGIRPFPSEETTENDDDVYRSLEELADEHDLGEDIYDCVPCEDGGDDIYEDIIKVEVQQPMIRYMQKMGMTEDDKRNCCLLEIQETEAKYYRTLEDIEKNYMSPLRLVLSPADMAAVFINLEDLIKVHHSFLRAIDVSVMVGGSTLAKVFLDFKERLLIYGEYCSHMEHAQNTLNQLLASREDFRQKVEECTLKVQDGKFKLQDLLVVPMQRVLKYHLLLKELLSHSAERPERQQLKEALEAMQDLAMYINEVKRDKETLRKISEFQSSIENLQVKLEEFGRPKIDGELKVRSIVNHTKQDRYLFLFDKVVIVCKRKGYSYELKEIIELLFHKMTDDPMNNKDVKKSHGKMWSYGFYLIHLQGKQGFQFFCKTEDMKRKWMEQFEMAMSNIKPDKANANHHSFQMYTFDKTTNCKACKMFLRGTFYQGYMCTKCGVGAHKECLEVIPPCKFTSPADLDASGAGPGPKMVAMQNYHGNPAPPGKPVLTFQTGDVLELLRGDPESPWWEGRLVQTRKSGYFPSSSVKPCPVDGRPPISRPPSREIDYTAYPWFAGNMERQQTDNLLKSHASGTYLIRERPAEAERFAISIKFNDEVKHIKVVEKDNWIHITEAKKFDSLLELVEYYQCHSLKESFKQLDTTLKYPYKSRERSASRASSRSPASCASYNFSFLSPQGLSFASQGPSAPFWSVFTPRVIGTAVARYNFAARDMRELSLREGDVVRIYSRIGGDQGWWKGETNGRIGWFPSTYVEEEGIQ
WAVE2, sequence (Q9Y6W5 whole entry, species assumed, the tested form may be a part): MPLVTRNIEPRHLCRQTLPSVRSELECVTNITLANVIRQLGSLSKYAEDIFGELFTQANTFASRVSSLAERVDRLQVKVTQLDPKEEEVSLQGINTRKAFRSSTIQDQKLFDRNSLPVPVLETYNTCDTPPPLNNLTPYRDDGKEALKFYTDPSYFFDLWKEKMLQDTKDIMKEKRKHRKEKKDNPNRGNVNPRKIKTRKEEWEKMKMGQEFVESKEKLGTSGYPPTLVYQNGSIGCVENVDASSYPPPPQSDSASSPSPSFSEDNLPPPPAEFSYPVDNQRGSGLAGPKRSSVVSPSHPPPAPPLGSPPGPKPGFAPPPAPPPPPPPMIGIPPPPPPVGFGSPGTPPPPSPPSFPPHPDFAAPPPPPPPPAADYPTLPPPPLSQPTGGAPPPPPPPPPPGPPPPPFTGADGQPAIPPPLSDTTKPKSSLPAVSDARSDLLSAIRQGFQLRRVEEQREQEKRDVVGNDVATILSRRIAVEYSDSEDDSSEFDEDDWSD

O=C(NC(=S)Nc1cc([N+](=O)[O-])cc(Cl)c1O)c1ccccc1 [PIT-1]
activation of Rac1 caused by growth factor stimulation [1]: efficiently suppressed the activation of Rac1 | combination with Akt kinase inhibitors: Akt activation, downstream phosphorylation, cell survival [2]: acted synergistically | aqueous solubility [3]: limited aqueous solubility | sensitization of U87MG cells to killing by TRAIL [4]: substantially sensitized U87MG cells to killing by TRAIL | cell death, alone or with TRAIL, in presence of zVAD.fmk [5]: inhibited by a pan-caspase inhibitor zVAD.fmk | fMLP-stimulated polarization of differentiated HL-60 neutrophils [6]: efficient inhibition | plasma membrane translocation of VAV2 [7]: significantly inhibited the translocation | plasma membrane translocation of WAVE2 [8]: suppressed the plasma membrane translocation | cancer cell invasion through matrigel [9]: efficiently suppressed cancer cell invasion through matrigel | cytotoxic effects at concentrations used in migration and invasion experiments ([9]; P>0.05): no significant cytotoxic effects | acquisition of invasive phenotype by SUM-159 cells ([9]; reversible): blocked acquisition of the invasive phenotype | PI3K/PDK1/Akt signaling in HUVEC [10]: capable of blocking PI3K/PDK1/Akt signaling pathway
